Data taken from ChEMBL document CHEMBL5505979, “Novel aminothiazoximone-corbelled ethoxycarbonylpyrimidones with antibiofilm activity to conquer Gram-negative bacteria through potential multitargeting effects” (Eur J Med Chem, 2024).
Values after ≈ are worked out from the molar mass of the structure shown. Active and inactive are the calls of the source. The calls are words filed in the database; no cut-off is given here.

Key:
Staphylococcus aureus [1] = experiment: Anti-bacterial activity against Staphylococcus aureus ATCC 12600 assessed as inhibition of bacterial growth; assay type: functional; settings: Staphylococcus aureus, ATCC 12600; read-out: MIC
Acinetobacter baumannii [2] = experiment: Anti-bacterial activity against Acinetobacter baumannii assessed as growth inhibition by measuring optical density measured at 2 time of MIC in presence of 1 times of MIC of norfloxacin by Checkerboard assay (reference value: 0.155); assay type: functional
Escherichia coli [3] = experiment: Reduction in metabolic activity of Escherichia coli ATCC 25922 assessed as decrease in bacterial lactate dehydrogenase activity at 0.5 to 8 times of MIC concentration; assay type: functional, organism-based
Acinetobacter baumannii [4] = experiment: Antibiofilm activity against Acinetobacter baumannii assessed as reduction of self-aggregation; assay type: functional, organism-based
Candida albicans = experiment: Anti-fungal activity against Candida albicans assessed as inhibition of fungal growth; assay type: functional; settings: Candida albicans; read-out: MIC
Escherichia coli [5] = experiment: Anti-bacterial activity against Escherichia coli ATCC 25922 assessed as growth inhibition by measuring optical density measured at 1/2 time of MIC in presence of 1/2 times of MIC of norfloxacin by Checkerboard assay (reference value: 0.124); assay type: functional
Acinetobacter baumannii [6] = experiment: Anti-bacterial activity against Acinetobacter baumannii assessed as growth inhibition by measuring optical density measured at 1/4 time of MIC in presence of 1/4 times of MIC of norfloxacin by Checkerboard assay (reference value: 0.152); assay type: functional
Escherichia coli [7] = experiment: Anti-bacterial activity against Escherichia coli ATCC 25922 assessed as growth inhibition by measuring optical density measured at 4 time of MIC in presence of 1/2 times of MIC of norfloxacin by Checkerboard assay (reference value: 0.125); assay type: functional
Escherichia coli [8] = experiment: Reduction of biofilm virulent factors in Escherichia coli ATCC 25922 assessed as decrease in extracellular polymeric substances (EPS) by measuring optical density at 490 nm at 2 times of MIC concentration by congo red binding assay (reference value: 0.028 to 0.031); assay type: functional
Escherichia coli [9] = experiment: Induction of membrane disturbance in Escherichia coli ATCC 25922 assessed as increase in fluorescence intensity at 0.5 to 8 times of MIC concentration measured after 90 mins by Propidium iodide assay; assay type: functional, organism-based
Klebsiella pneumoniae = experiment: Anti-bacterial activity against Klebsiella pneumoniae KPN325 assessed as inhibition of bacterial growth; assay type: functional; settings: Klebsiella pneumoniae, KPN325; read-out: MIC
Staphylococcus aureus [10] = experiment: Anti-bacterial activity against Staphylococcus aureus ATCC 1708 assessed as inhibition of bacterial growth; assay type: functional; settings: Staphylococcus aureus, ATCC 1708; read-out: MIC
Escherichia coli [11] = experiment: Anti-bacterial activity against Escherichia coli ATCC 25922 assessed as growth inhibition by measuring optical density measured at 1/4 time of MIC in presence of 1/8 times of MIC of norfloxacin by Checkerboard assay (reference value: 0.128); assay type: functional
Candida tropicalis = experiment: Anti-fungal activity against Candida tropicalis assessed as inhibition of fungal growth; assay type: functional; settings: Candida tropicalis; read-out: MIC
Pseudomonas aeruginosa = experiment: Anti-bacterial activity against Pseudomonas aeruginosa CMCC (B) 10104 assessed as inhibition of bacterial growth; assay type: functional; settings: Pseudomonas aeruginosa, CMCC (B) 10104; read-out: MIC
Escherichia coli [12] = experiment: Anti-bacterial activity against Escherichia coli ATCC 25922 assessed as growth inhibition by measuring optical density measured at 2 time of MIC in presence of 1/8 times of MIC of norfloxacin by Checkerboard assay (reference value: 0.128); assay type: functional
Escherichia coli [13] = experiment: Reduction of biofilm virulent factors in Escherichia coli ATCC 25922 assessed as decrease in hydrophobicity index; assay type: functional, organism-based
Escherichia coli [14] = experiment: Anti-bacterial activity against Escherichia coli ATCC 25922 assessed as growth inhibition by measuring optical density measured at 4 time of MIC in presence of 1/4 times of MIC of norfloxacin by Checkerboard assay (reference value: 0.125); assay type: functional
Escherichia coli [15] = experiment: Anti-bacterial activity against Escherichia coli ATCC 25922 assessed as inhibition of bacterial growth measured upto 9 hrs; assay type: functional, organism-based
Staphylococcus aureus [16] = experiment: Anti-bacterial activity against Staphylococcus aureus ATCC 25923 assessed as inhibition of bacterial growth; assay type: functional; settings: Staphylococcus aureus, ATCC 25923; read-out: MIC
Escherichia coli [17] = experiment: Anti-bacterial activity against Escherichia coli ATCC 25922 assessed as growth inhibition by measuring optical density measured at 2 time of MIC in presence of 1 times of MIC of norfloxacin by Checkerboard assay (reference value: 0.128); assay type: functional
Enterococcus faecalis = experiment: Anti-bacterial activity against Enterococcus faecalis V583 assessed as inhibition of bacterial growth; assay type: functional
Staphylococcus aureus [18] = experiment: Anti-bacterial activity against Staphylococcus aureus CMCC (B) 26003 assessed as inhibition of bacterial growth; assay type: functional
Escherichia coli [19] = experiment: Anti-bacterial activity against Escherichia coli ATCC 25922 assessed as growth inhibition by measuring optical density measured at 1 time of MIC in presence of 2 times of MIC of norfloxacin by Checkerboard assay (reference value: 0.125); assay type: functional
Escherichia coli [20] = experiment: Induction of ROS accumulation in Escherichia coli ATCC 25922 assessed as decrease in GSH activity by measuring reduced GSH to convert to oxidized GSSG at 1/4 to 2 times of MIC by Ellmans metho; assay type: functional, organism-based
Acinetobacter baumannii [21] = experiment: Anti-bacterial activity against Acinetobacter baumannii assessed as growth inhibition by measuring optical density measured at 1/2 time of MIC in presence of 2 times of MIC of norfloxacin by Checkerboard assay (reference value: 0.152); assay type: functional
Acinetobacter baumannii [22] = experiment: Anti-bacterial activity against Acinetobacter baumannii assessed as growth inhibition by measuring optical density measured at 1/2 time of MIC in presence of 1/4 times of MIC of norfloxacin by Checkerboard assay (reference value: 0.152); assay type: functional
Acinetobacter baumannii [23] = experiment: Induction of membrane disturbance in Acinetobacter baumannii assessed as increase in fluorescence intensity at 0.5 to 8 times of MIC concentration measured after 90 mins by Propidium iodide assay; assay type: functional, organism-based
[24] = Hemolysis in human RBC assessed as morphological changes of RBC by measuring intact/smooth surface rounded cell surface at 128 times of MIC concentration for 6 hrs by microscopic analysis; assay type: toxicity, cell-based; settings: erythrocyte
Acinetobacter baumannii [25] = experiment: Reduction of biofilm virulent factors in Acinetobacter baumannii assessed as decrease in extracellular polymeric substances (EPS) at 4 times of MIC concentration by congo red binding assay relative to control; assay type: functional; set-up: scale not given: the % may be the effect or the level left
Acinetobacter baumannii [26] = experiment: Reduction in metabolic activity of Acinetobacter baumannii assessed as decrease in bacterial lactate dehydrogenase activity at 0.5 to 8 times of MIC concentration; assay type: functional, organism-based
Acinetobacter baumannii [27] = experiment: Anti-bacterial activity against Acinetobacter baumannii assessed as growth inhibition by measuring optical density measured at 1/2 time of MIC in presence of 1 times of MIC of norfloxacin by Checkerboard assay (reference value: 0.152); assay type: functional
Escherichia coli [28] = experiment: Antibiofilm activity against Escherichia coli ATCC 25922 assessed as inhibition rate of bio-film formation at 0.5 times of MIC concentration by Crystal violet assay relative to control; assay type: functional
Escherichia coli [29] = experiment: Antibiofilm activity against Escherichia coli ATCC 25922 assessed as inhibition rate of bio-film formation at 8 times of MIC concentration by Crystal violet assay relative to control; assay type: functional

SMILES: CCCCc1nc(Cl)c(C2NC(=O)NC(CN3CCN(C(=O)/C(=N/OC)c4csc(N)n4)CC3)=C2C(=O)OCC)[nH]1 (centres undefined)
- MIC (Staphylococcus aureus [1]): 7 µM (≈ 4.26 µg/mL)
- OD (Acinetobacter baumannii [2]): 0.052
- Activity (Escherichia coli [3]): Active
- Activity (Acinetobacter baumannii [4]): Dose-Dependent Effect
- MIC (Candida albicans): 422 µM (≈ 257 µg/mL)
- OD (Escherichia coli [5]): 0.107
- OD (Acinetobacter baumannii [6]): 0.129
- OD (Escherichia coli [7]): 0.052
- OD (Escherichia coli [8]): 0.068
- Activity (Escherichia coli [9]): Active
- MIC (Klebsiella pneumoniae): 53 µM (≈ 32.2 µg/mL)
- MIC (Staphylococcus aureus [10]): 13 µM (≈ 7.91 µg/mL)
- OD (Escherichia coli [11]): 0.122
- MIC (Candida tropicalis): 53 µM (≈ 32.2 µg/mL)
- MIC (Pseudomonas aeruginosa): 26 µM (≈ 15.8 µg/mL)
- OD (Escherichia coli [12]): 0.122
- Activity (Escherichia coli [13]): Active
- OD (Escherichia coli [14]): 0.051
- Activity (Escherichia coli [15]): Dose-Dependent Effect
- MIC (Staphylococcus aureus [16]): 7 µM (≈ 4.26 µg/mL)
- OD (Escherichia coli [17]): 0.052
- MIC (Enterococcus faecalis): 13 µM (≈ 7.91 µg/mL)
- MIC (Staphylococcus aureus [18]): 26 µM (≈ 15.8 µg/mL)
- OD (Escherichia coli [19]): 0.051
- Activity (Escherichia coli [20]): Active
- OD (Acinetobacter baumannii [21]): 0.051
- OD (Acinetobacter baumannii [22]): 0.119
- Activity (Acinetobacter baumannii [23]): Active
- Activity [24]: Non-Toxic
- Activity (Acinetobacter baumannii [25]): 52.4%
- Activity (Acinetobacter baumannii [26]): Active
- OD (Acinetobacter baumannii [27]): 0.109
- inhibition (INH) (Escherichia coli [28]): 28.3%
- inhibition (INH) (Escherichia coli [29]): >70.2%
